Experimental data as given in patent US12590062B2, “PD-1/PD-L1 inhibitors” (Gilead Sciences, Inc., priority 2017, dated 2026).

target: T1, PD-1/PD-L1 interaction (Homo sapiens, UniProt Q9NZQ7); test: PD-1/PD-L1 NFAT reporter co-culture assay; type: cell-based; settings: Jurkat PD-1 NFAT-luciferase cells co-cultured with aAPC-PD-L1 CHO cells, 6 hrs at 37° C.; read-out: EC50 NFAT Luciferase
T1 construct: expressed in transfected cells; host or cells: CHO cells (aAPC-PD-L1) co-cultured with Jurkat cells overexpressing PD-1 and an NFAT-luciferase reporter
Outline: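 Compounds are scored by restoration of NFAT-luciferase signal in PD-1-expressing Jurkat cells cultured 6 h at 37 °C on CHO cells presenting anti-CD3 and PD-L1; EC50 values derive from four-parameter curve fitting.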

T1 sequence (Q9NZQ7 19-290): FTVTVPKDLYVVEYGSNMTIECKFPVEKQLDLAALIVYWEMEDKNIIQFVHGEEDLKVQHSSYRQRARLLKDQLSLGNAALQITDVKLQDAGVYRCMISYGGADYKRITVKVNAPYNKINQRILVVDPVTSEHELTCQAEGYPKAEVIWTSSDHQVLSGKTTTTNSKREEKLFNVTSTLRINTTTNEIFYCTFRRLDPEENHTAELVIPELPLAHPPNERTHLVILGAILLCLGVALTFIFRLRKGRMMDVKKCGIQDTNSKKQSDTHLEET

EC50	Compound
≥ 50000 nM	COc1nc(OCc2cccc(-c3cccc(COc4nc(OC)c(CNCC(=O)NS(=O)(=O)N(C)C)cc4Cl)c3C)c2C)c(Cl)cc1CNCC(=O)NS(=O)(=O)N(C)C [Example 174, 2,2′-((((((2,2′-dimethyl-[1,1′-biphenyl]-3,3′-diyl)bis(methylene))bis(oxy))bis(5-chloro-2-methoxypyridine-6,3-diyl))bis(methylene))bis(azanediyl))bis(N-(N,N-dimethylsulfamoyl)acetamide)]
808 nM	COc1nc(OCc2cccc(-c3cccc(COc4nc(OC)c(CNCC5(O)CC5)cc4Cl)c3C)c2C)c(Cl)cc1CNCC1(O)CC1 [Example 175, 1,1′-(((((((2,2′-dimethyl-[1,1′-biphenyl]-3,3′-diyl)bis(methylene))bis(oxy))bis(5-chloro-2-methoxypyridine-6,3-diyl))bis(methylene))bis(azanediyl))bis(methylene))bis(cyclopropan-1-ol)]
2880 nM	COc1nc(OCc2cccc(-c3cccc(COc4nc(OC)c(CNCC(O)C(F)F)cc4Cl)c3C)c2C)c(Cl)cc1CNCC(O)C(F)F (centres unmarked) [Example 176, 3,3′-((((((2,2′-dimethyl-[1,1′-biphenyl]-3,3′-diyl)bis(methylene))bis(oxy))bis(5-chloro-2-methoxypyridine-6,3-diyl))bis(methylene))bis(azanediyl))bis(1,1-difluoropropan-2-ol)]
1390 nM	COc1nc(OCc2cccc(-c3cccc(COc4nc(OC)c(CN[C@H]5CCC[C@@H](C(=O)O)C5)cc4Cl)c3C)c2C)c(Cl)cc1CN[C@H]1CCC[C@@H](C(=O)O)C1 [Example 184, (1R,1′R,3S,3′S)-3,3′-((((((2,2′-dimethyl-[1,1′-biphenyl]-3,3′-diyl)bis(methylene))bis(oxy))bis(5-chloro-2-methoxypyridine-6,3-diyl))bis(methylene))bis(azanediyl))bis(cyclohexane-1-carboxylic acid)]
106 nM	COc1nc(OCc2cccc(-c3cccc(COc4nc(OC)c(CNC[C@@H](O)CC(=O)O)cc4Br)c3Cl)c2Cl)c(Br)cc1CNC[C@@H](O)CC(=O)O [Example 189, (3S,3′S)-4,4′-((((((2,2′-Dichloro-[1,1′-biphenyl]-3,3′-diyl)bis(methylene))bis(oxy))bis(5-bromo-2-methoxypyridine-6,3-diyl))bis(methylene))bis(azanediyl))bis(3-hydroxybutanoic acid)]
516 nM	COc1nc(OCc2cccc(-c3cccc(COc4nc(OC)c(CNC[C@@H](O)CC(=O)O)cc4Br)c3Cl)c2Cl)ccc1CNC[C@@H](O)CC(=O)O [Example 190, (S)-4-(((6-((3′-(((3-Bromo-5-((((S)-3-carboxy-2-hydroxypropyl)amino)methyl)-6-methoxypyridin-2-yl)oxy)methyl)-2,2′-dichloro-[1,1′-biphenyl]-3-yl)methoxy)-2-methoxypyridin-3-yl)methyl)amino)-3-hydroxybutanoic acid]
1260 nM	N#Cc1cncc(COc2nc(OCc3cccc(-c4cccc(COc5nc(OCc6cncc(C#N)c6)c(CNC[C@@H](O)CC(=O)O)cc5Br)c4Cl)c3Cl)ccc2CNC[C@@H](O)CC(=O)O)c1 [Example 194, (S)-4-(((6-((3′-(((3-Bromo-5-((((S)-3-carboxy-2-hydroxypropyl)amino)methyl)-6-((5-cyanopyridin-3-yl)methoxy)pyridin-2-yl)oxy)methyl)-2,2′-dichloro-[1,1′-biphenyl]-3-yl)methoxy)-2-((5-cyanopyridin-3-yl)methoxy)pyridin-3-yl)methyl)amino)-3-hydroxybutanoic acid]
408 nM	N#Cc1cncc(COc2nc(OCc3cccc(-c4cccc(COc5ccc(CNC[C@@H](O)CC(=O)O)c(OCc6cncc(C#N)c6)n5)c4Cl)c3Cl)ccc2CNC[C@@H](O)CC(=O)O)c1 [Example 195, (3S,3′S)-4,4′-((((((2,2′-Dichloro-[1,1′-biphenyl]-3,3′-diyl)bis(methylene))bis(oxy))bis(2-((5-cyanopyridin-3-yl)methoxy)pyridine-6,3-diyl))bis(methylene))bis(azanediyl))bis(3-hydroxybutanoic acid)]
98 nM	C[C@@](CO)(NCc1cc(Br)c(OCc2cccc(-c3cccc(COc4nc(OCc5cncc(C#N)c5)c(CN[C@@](C)(CO)C(=O)O)cc4Br)c3Cl)c2Cl)nc1OCc1cncc(C#N)c1)C(=O)O [Example 197, (2S,2′S)-2,2′-((((((2,2′-Dichloro-[1,1′-biphenyl]-3,3′-diyl)bis(methylene))bis(oxy))bis(5-bromo-2-((5-cyanopyridin-3-yl)methoxy)pyridine-6,3-diyl))bis(methylene))bis(azanediyl))bis(3-hydroxy-2-methylpropanoic acid)]
680 nM	Cc1c(COc2cc(OCc3cncc(C#N)c3)c(CNCC(C)(O)CC(=O)O)cc2Cl)cccc1-c1cccc(COc2cc(OCc3cncc(C#N)c3)c(CNCC(C)(O)CC(=O)O)cc2Cl)c1C (centres unmarked) [Example 218, 4,4′-((((((2,2′-dimethyl-[1,1′-biphenyl]-3,3′-diyl)bis(methylene))bis(oxy))bis(5-chloro-2-((5-cyanopyridin-3-yl)methoxy)-4,1-phenylene))bis(methylene))bis(azanediyl))bis(3-hydroxy-3-methylbutanoic acid)]
775 nM	COc1nc(OCc2cccc(-c3cccc(COc4nc(OC)c(CN[C@H]5CCC[C@H]5O)cc4Cl)c3C)c2C)c(Cl)cc1CN[C@H]1CCC[C@H]1O [Example 226, (1R,1′R,2S,2′S)-2,2′-((((((2,2′-dimethyl-[1,1′-biphenyl]-3,3′-diyl)bis(methylene))bis(oxy))bis(5-chloro-2-methoxypyridine-6,3-diyl))bis(methylene))bis(azanediyl))bis(cyclopentan-1-ol)]
615 nM	COc1nc(OCc2cccc(-c3cccc(COc4nc(OC)c(CN[C@@H]5CCC[C@@H]5O)cc4Cl)c3C)c2C)c(Cl)cc1CN[C@@H]1CCC[C@@H]1O [Example 227, (1S,1′S,2R,2′R)-2,2′-((((((2,2′-dimethyl-[1,1′-biphenyl]-3,3′-diyl)bis(methylene))bis(oxy))bis(5-chloro-2-methoxypyridine-6,3-diyl))bis(methylene))bis(azanediyl))bis(cyclopentan-1-ol)]
844 nM	COc1nc(OCc2cccc(-c3cccc(COc4nc(OC)c(CN[C@H]5CCCC[C@H]5O)cc4Cl)c3C)c2C)c(Cl)cc1CN[C@H]1CCCC[C@H]1O [Example 228, (1R,1′R,2S,2′S)-2,2′-((((((2,2′-dimethyl-[1,1′-biphenyl]-3,3′-diyl)bis(methylene))bis(oxy))bis(5-chloro-2-methoxypyridine-6,3-diyl))his(methylene))his(azanediyl))his(cyclohexan-1-ol)]
1220 nM	COc1nc(OCc2cccc(-c3cccc(COc4nc(OC)c(CN[C@H]5CCCC[C@@H]5O)cc4Cl)c3C)c2C)c(Cl)cc1CN[C@H]1CCCC[C@@H]1O [Example 229, (1S,1′S,2S,2′S)-2,2′-((((((2,2′-dimethyl-[1,1′-biphenyl]-3,3′-diyl)bis(methylene))bis(oxy))bis(5-chloro-2-methoxypyridine-6,3-diyl))bis(methylene))bis(azanediyl))bis(cyclohexan-1-ol)]
